Assay results published in US20220402950A1, “SUBSTITUTED BENZIMIDAZOLES AS PAD4 INHIBITORS” (BRISTOL-MYERS SQUIBB COMPANY, priority 2018, published 2022).

Target: human PAD4 (hPAD4) (Homo sapiens, UniProt Q9UM07)
Assay: RFMS Human PAD4 Functional Assay
Assay type: biochemical
Details: hPAD4 RFMS IC50, human PAD4, rapid-fire mass spectrum (RFMS) assay; 5 nM hPAD4, 250 μM BAEE
Outline: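 RapidFire ESI-MS quantification, normalised to a modified-citrulline internal standard, after phenyl glyoxal (final 4 mM) derivatisation of the TCA-quenched reaction. The enzyme (10 nM) sat 30 min with compound (up to 50 μM final) before 500 μM BAEE (as added) started a 90 min, 37 °C reaction. Buffer: HEPES pH 7.5, 50 μM calcium, 5 μM TPEN.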

Sequence of human PAD4 (hPAD4) (Q9UM07 whole entry): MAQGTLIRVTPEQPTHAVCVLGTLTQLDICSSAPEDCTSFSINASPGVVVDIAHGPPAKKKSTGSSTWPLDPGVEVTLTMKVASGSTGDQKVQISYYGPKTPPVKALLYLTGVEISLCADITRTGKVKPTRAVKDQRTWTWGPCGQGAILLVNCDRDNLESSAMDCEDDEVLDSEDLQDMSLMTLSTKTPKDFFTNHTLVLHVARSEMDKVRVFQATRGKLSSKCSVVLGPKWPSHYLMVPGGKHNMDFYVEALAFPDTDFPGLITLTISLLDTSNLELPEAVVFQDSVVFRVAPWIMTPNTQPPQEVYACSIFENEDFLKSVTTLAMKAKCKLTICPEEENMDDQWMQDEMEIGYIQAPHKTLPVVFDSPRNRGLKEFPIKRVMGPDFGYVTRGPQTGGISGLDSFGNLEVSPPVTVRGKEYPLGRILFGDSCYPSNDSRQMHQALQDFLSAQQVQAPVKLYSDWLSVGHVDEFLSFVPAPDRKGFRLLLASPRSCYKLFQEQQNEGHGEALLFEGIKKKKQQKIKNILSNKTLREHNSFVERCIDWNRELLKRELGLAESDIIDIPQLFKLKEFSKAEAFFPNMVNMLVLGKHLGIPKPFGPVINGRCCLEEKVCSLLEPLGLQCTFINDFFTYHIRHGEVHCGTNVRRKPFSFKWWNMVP

In order of rising IC50:
1. COc1cc(C(=O)N2C[C@H]3CC[C@@H]2[C@@H]3N)cc2nc(-c3cc4cccc(C5CN(C(=O)Cc6ccncc6)C5)c4n3CC3CC3)n(C)c12 [Example 73, 1-[3-(2-{5-[(1R,4R,7R)-7-amino-2-azabicyclo[2.2.1]heptane-2-carbonyl]-7-methoxy-1-methyl-1H-1,3-benzodiazol-2-yl}-1-(cyclopropylmethyl)-1H-indol-7-yl)azetidin-1-yl]-2-(pyridin-4-yl)ethan-1-one]  5 nM
2. COc1cc(C(=O)N2C[C@H]3CC[C@@H]2[C@@H]3N)cc2nc(-c3cc4cccc(C5CN(C(=O)Cc6ccccc6)C5)c4n3CC3CC3)n(C)c12 [Example 72, 1-[3-(2-{5-[(1R,4R,7R)-7-amino-2-azabicyclo[2.2.1]heptane-2-carbonyl]-7-methoxy-1-methyl-1H-1,3-benzodiazol-2-yl}-1-(cyclopropylmethyl)-1H-indol-7-yl)azetidin-1-yl]-2-phenylethan-1-one]  10 nM
3. COc1cc(C(=O)N2C[C@H]3CC[C@@H]2[C@@H]3N)cc2nc(-c3cc4cccc(C5CN(C(=O)Cc6cccnc6)C5)c4n3CC3CC3)n(C)c12 [Example 78, 1-[3-(2-{5-[(1R,4R,7R)-7-amino-2-azabicyclo[2.2.1]heptane-2-carbonyl]-7-methoxy-1-methyl-1H-1,3-benzodiazol-2-yl}-1-(cyclopropylmethyl)-1H-indol-7-yl)azetidin-1-yl]-2-(pyridin-3-yl)ethan-1-one]  10 nM
4. COc1cc(C(=O)N2C[C@H]3CC[C@@H]2[C@@H]3N)cc2nc(-c3cc4cccc(C5CN(C(=O)CO)C5)c4n3CC3CC3)n(C)c12 [Example 82, 1-[3-(2-{5-[(1R,4R,7R)-7-amino-2-azabicyclo[2.2.1]heptane-2-carbonyl]-7-methoxy-1-methyl-1H-1,3-benzodiazol-2-yl}-1-(cyclopropylmethyl)-1H-indol-7-yl)azetidin-1-yl]-2-hydroxyethan-1-one]  10 nM
5. COc1cc(C(=O)N2C[C@H]3CC[C@@H]2[C@@H]3N)cc2nc(-c3cc4cccc(C5CN(C(=O)CCc6ccccc6)C5)c4n3CC3CC3)n(C)c12 [Example 79, 1-[3-(2-{5-[(1R,4R,7R)-7-amino-2-azabicyclo[2.2.1]heptane-2-carbonyl]-7-methoxy-1-methyl-1H-1,3-benzodiazol-2-yl}-1-(cyclopropylmethyl)-1H-indol-7-yl)azetidin-1-yl]-3-phenylpropan-1-one]  12 nM
6. COc1cc(C(=O)N2C[C@H]3CC[C@@H]2[C@@H]3N)cc2nc(-c3cc4cccc(C5CN(C(=O)Nc6ccccc6)C5)c4n3CC3CC3)n(C)c12 [Example 70, 3-(2-{5-[(1R,4R,7R)-7-amino-2-azabicyclo[2.2.1]heptane-2-carbonyl]-7-methoxy-1-methyl-1H-1,3-benzodiazol-2-yl}-1-(cyclopropylmethyl)-1H-indol-7-yl)-N-phenylazetidine-1-carboxamide]  15 nM
7. COCC(=O)N1CC(c2cccc3cc(-c4nc5cc(C(=O)N6C[C@H]7CC[C@@H]6[C@@H]7N)cc(OC)c5n4C)n(CC4CC4)c23)C1 [Example 71, 1-[3-(2-{5-[(1R,4R,7R)-7-amino-2-azabicyclo[2.2.1]heptane-2-carbonyl]-7-methoxy-1-methyl-1H-1,3-benzodiazol-2-yl}-1-(cyclopropylmethyl)-1H-indol-7-yl)azetidin-1-yl]-2-methoxyethan-1-one]  16 nM
8. COc1cc(C(=O)N2C[C@H]3CC[C@@H]2[C@@H]3N)cc2nc(-c3cc4cccc(C5CN(C(=O)CCO)C5)c4n3CC3CC3)n(C)c12 [Example 80, 1-[3-(2-{5-[(1R,4R,7R)-7-amino-2-azabicyclo[2.2.1]heptane-2-carbonyl]-7-methoxy-1-methyl-1H-1,3-benzodiazol-2-yl}-1-(cyclopropylmethyl)-1H-indol-7-yl)azetidin-1-yl]-3-hydroxypropan-1-one]  16 nM
9. COc1cc(C(=O)N2C[C@H]3CC[C@@H]2[C@@H]3N)cc2nc(-c3cc4cccc(C5CN(C(=O)Cc6nnn[nH]6)C5)c4n3CC3CC3)n(C)c12 [Example 81, 1-[3-(2-{5-[(1R,4R,7R)-7-amino-2-azabicyclo[2.2.1]heptane-2-carbonyl]-7-methoxy-1-methyl-1H-1,3-benzodiazol-2-yl}-1-(cyclopropylmethyl)-1H-indol-7-yl)azetidin-1-yl]-2-(1H-1,2,3,4-tetrazol-5-yl)ethan-1-one]  16 nM
10. COc1cc(C(=O)N2C[C@H]3CC[C@@H]2[C@@H]3N)cc2nc(-c3cc4cccc(C5CN(C(=O)Cc6cnccn6)C5)c4n3CC3CC3)n(C)c12 [Example 76, 1-[3-(2-{5-[(1R,4R,7R)-7-amino-2-azabicyclo[2.2.1]heptane-2-carbonyl]-7-methoxy-1-methyl-1H-1,3-benzodiazol-2-yl}-1-(cyclopropylmethyl)-1H-indol-7-yl)azetidin-1-yl]-2-(pyrazin-2-yl)ethan-1-one]  19 nM
11. COc1cc(C(=O)N2C[C@H]3CC[C@@H]2[C@@H]3N)cc2nc(-c3cc4cccc(C5CN(C(=O)Cc6ccccn6)C5)c4n3CC3CC3)n(C)c12 [Example 75, 1-[3-(2-{5-[(1R,4R,7R)-7-amino-2-azabicyclo[2.2.1]heptane-2-carbonyl]-7-methoxy-1-methyl-1H-1,3-benzodiazol-2-yl}-1-(cyclopropylmethyl)-1H-indol-7-yl)azetidin-1-yl]-1-(pyridin-2-yl)ethan-1-one]  34 nM
12. COc1cc(C(=O)N2C[C@H]3CC[C@@H]2[C@@H]3N)cc2nc(-c3cc4cccc(C5CN(C(=O)CC#N)C5)c4n3CC3CC3)n(C)c12 [Example 77, 3-[3-(2-{5-[(1R,4R,7R)-7-amino-2-azabicyclo[2.2.1]heptane-2-carbonyl]-7-methoxy-1-methyl-1H-1,3-benzodiazol-2-yl}-1-(cyclopropylmethyl)-1H-indol-7-yl)azetidin-1-yl]-3-oxopropanenitrile]  38 nM
13. COc1cc(-c2cccc3cc(-c4nc5cc(C(=O)N6C[C@H]7CC[C@@H]6[C@@H]7N)cc(OC)c5n4C)n(CC4CC4)c23)ccc1O [Example 91, 4-(2-{5-[(1R,4R,7R)-7-amino-2-azabicyclo[2.2.1]heptane-2-carbonyl]-7-methoxy-1-methyl-1H-1,3-benzodiazol-2-yl}-1-(cyclopropylmethyl)-1H-indol-7-yl)-2-methoxyphenol]  42 nM
14. COc1cc(C(=O)N2C[C@H]3CC[C@@H]2[C@@H]3N)cc2nc(-c3cc4cccc(-c5ccc(O)c(F)c5)c4n3CC3CC3)n(C)c12 [Example 90, 4-(2-{5-[(1R,4R,7R)-7-amino-2-azabicyclo[2.2.1]heptane-2-carbonyl]-7-methoxy-1-methyl-1H-1,3-benzodiazol-2-yl}-1-(cyclopropylmethyl)-1H-indol-7-yl)-2-fluorophenol]  45 nM
15. COc1cc(C(=O)N2C[C@H]3CC[C@@H]2[C@@H]3N)cc2nc(-c3cc4cccc(C5CN(C(=O)C(C)(C)O)C5)c4n3CC3CC3)n(C)c12 [Example 69, 1-[3-(2-{5-[(1R,4R,7R)-7-amino-2-azabicyclo[2.2.1]heptane-2-carbonyl]-7-methoxy-1-methyl-1H-1,3-benzodiazol-2-yl}-1-(cyclopropylmethyl)-1H-indol-7-yl)azetidin-1-yl]-2-hydroxy-2-methylpropan-1-one]  50 nM
16. C=CC(=O)Nc1cccc(-c2cccc3cc(-c4nc5cc(C(=O)N6C[C@H]7CC[C@@H]6[C@@H]7N)cc(OC)c5n4C)n(CC4CC4)c23)c1 [Example 88, N-[3-(2-{5-[(1R,4R,7R)-7-amino-2-azabicyclo[2.2.1]heptane-2-carbonyl]-7-methoxy-1-methyl-1H-1,3-benzodiazol-2-yl}-1-(cyclopropylmethyl)-1H-indol-7-yl)phenyl]prop-2-enamide]  56 nM
17. COc1cc(C(=O)N2C[C@H]3CC[C@@H]2[C@@H]3N)cc2nc(-c3cc4cccc(C5CN(C(=O)c6ccccc6)C5)c4n3CC3CC3)n(C)c12 [Example 74, (1R,4R,7R)-2-{2-[7-(1-benzoylazetidin-3-yl)-1-(cyclopropylmethyl)-1H-indol-2-yl]-7-methoxy-1-methyl-1H-1,3-benzodiazole-5-carbonyl}-2-azabicyclo[2.2.1]heptan-7-amine]  71 nM
18. COc1cc(C(=O)N2C[C@H]3CC[C@@H]2[C@@H]3N)cc2nc(-c3cc4cccc(-c5ccc(CNC(C)=O)cc5)c4n3CC3CC3)n(C)c12 [Example 89, N-{[4-(2-{5-[(1R,4R,7R)-7-amino-2-azabicyclo[2.2.1]heptane-2-carbonyl]-7-methoxy-1-methyl-1H-1,3-benzodiazol-2-yl}-1-(cyclopropylmethyl)-1H-indol-7-yl)phenyl]methyl}acetamide]  108 nM
19. COc1cc(C(=O)N2C[C@H]3CC[C@@H]2[C@@H]3N)cc2nc(-c3cc4cccc(C5CN(S(=O)(=O)c6ccccc6)C5)c4n3CC3CC3)n(C)c12 [Example 83, (1R,4R,7R)-2-(2-{7-[1-(benzenesulfonyl)azetidin-3-yl]-1-(cyclopropylmethyl)-1H-indol-2-yl}-7-methoxy-1-methyl-1H-1,3-benzodiazole-5-carbonyl)-2-azabicyclo[2.2.1]heptan-7-amine]  123 nM

Same assay, conditions: human PAD4, rapid-fire mass spectrum (RFMS) assay; 5 nM hPAD4, 250 μM BAEE; read-out: hPAD4 RFMS IC50

In order of falling IC50:
1. COc1cc(C(=O)N2C[C@H]3CC[C@@H]2[C@@H]3N)cc2nc(-c3cc4cccc(-c5ccccc5O)c4n3CC3CC3)n(C)c12 [Example 87, 2-(2-{5-[(1R,4R,7R)-7-amino-2-azabicyclo[2.2.1]heptane-2-carbonyl]-7-methoxy-1-methyl-1H-1,3-benzodiazol-2-yl}-1-(cyclopropylmethyl)-1H-indol-7-yl)phenol]  111 nM
2. COc1cc(C(=O)N2C[C@H]3CC[C@@H]2[C@@H]3N)cc2nc(-c3cc4cccc(C5=CCNCC5)c4n3CC3CC3)n(C)c12 [Example 84]  34 nM
